Values of other authors in patent publication US6576227B1, “Peroxidase-activating oral compositions” (Oraceutical Innovative Properties, LLC, priority 1995, dated 2003).

Legend:
[1] = 20° C.
[2] = tested on: cellular DNA; details: elevated concentrations (greater than about 0.1 percent or about 29 millimoles per liter)

SMILES | pH upon dissolution, 1% solution (1% solution in water) | pH, saturated solution (saturated solution in water) | water solubility [1] | concentration of saturated solution ([1]; water) | mutagenicity and cellular DNA damage [2]
NC(N)=O.OO [Carbamide peroxide] | approximately 4.05 | approximately 3.40 | 800 grams per liter | 44.4% | –
OO [hydrogen peroxide] | – | – | – | – | mutagenic
